# In patent publication US20200069650A1, “DEXMEDETOMIDINE OR MEDETOMIDINE FOR USE IN TREATING SEPARATION ANXIETY IN DOGS” (Orion Corporation, priority 2016, published 2020):
# Tested on: separation anxiety in dogs
# Conditions: Example 6: mixed breed dog, behavioural modification supported by fluoxetine
# Protocol: Oromucosal dexmedetomidine gel was then administered to buccal/gingival mucosa of the dog with a syringe using a dose of 125 μg/m^2 of dexmedetomidine hydrochloride about 15 minutes prior to unscheduled departures such as shopping and visiting friends.
compound,measurement,setting,value
CNCCC(Oc1ccc(C(F)(F)F)cc1)c1ccccc1 (centres unmarked) [fluoxetine],effect of conventional therapy on regular daily work departures,,enabled trouble free leaving dog at home during regular daily work departures
same,signs of separation anxiety at unscheduled departures under conventional therapy,before gel,still showed signs of sepration anxiety to unscheduled departures
